Reference: publication PMC8175350, “Drug repurposing screens identify chemical entities for the development of COVID-19 interventions” (Nature Communications, 2021)
Where two headings read alike, the source gives them in different places.

Tests used:
SARS-CoV-2 [1] = assay: microbe, parasite or virus in culture; format: cell-based; details: for Emax: Severe acute respiratory syndrome coronavirus 2, HeLa-ACE2, 24 h, read-out: HeLa-ACE2 CoV-2 Sinf Average; for EC50: Severe acute respiratory syndrome coronavirus 2, HeLa-ACE2, detail column, read-out: HeLa-ACE2 CoV-2 EC50 GeoMean
Calu-3 cells [2] = assay: cells; details: Homo sapiens, Calu-3, read-out: Calu-3 cell count EC50 GeoMean
HepG2 [3] = assay: HepG2 72 h CellTiter-Glo cytotoxicity; details: 72 h
in vitro [4] = details: human
[5] = HEK293T 72 h CellTiter-Glo cytotoxicity; details: human, HEK293T cells
HeLa-ACE2 cells [6] = assay: Total cell count in the HeLa-ACE2 TOA (time of addition) assay; format: cell-based, human; details: Homo sapiens, HeLa-ACE2; read-out: HeLa-ACE2 TOA cell count EC50 GeoMean
SARS-CoV-2 [7] = assay: microbe, parasite or virus in culture; format: cell-based; details: for EC50: read-out: HeLa-ACE2 TOA CoV-2 EC50 GeoMean
SARS-CoV-2 [8] = assay: microbe, parasite or virus in culture; format: cell-based; details: for EC50: read-out: Calu-3 CoV-2 EC50 GeoMean
HeLa-ACE2 cells [9] = assay: cells; details: Homo sapiens; for EC50: HeLa-ACE2, read-out: HeLa-ACE2 cell count EC50 GeoMean
[10] = Uninfected HeLa-ACE2 24 h live/dead cytotoxicity counter screen; format: cell-based, human; details: human, uninfected HeLa-ACE2 cells; read-out: HeLa-ACE2 uninfected cytotoxicity CC50 GeoMean
HepG2 [11] = details: human, 72 h
SARS-CoV-2 [12] = format: cell-based; details: combination with remdesivir, synergy score δ
HEK293T = details: human, 72 h
HeLa-ACE2 cells [13] = assay: Total cell count in the HeLa-ACE2 TOA assay; format: cell-based; details: Homo sapiens, HeLa-ACE2; read-out: HeLa-ACE2 TOA cell count EC50 GeoMean
Text: Supplement 41467_2021_23328_MOESM3_ESM.xlsx, sheet "Table S1" | column: HeLa-ACE2 TOA cell count

in vitro [14] = details: human; remark: listed apart in the source
Calu-3 cells [15] = system: Calu-3 cells
in vitro [16] = details: human, Calu-3 uninfected cytotoxicity CC50 GeoMean
HeLa-ACE2 cells [17] = assay: Uninfected HeLa-ACE2 24 h live/dead cytotoxicity counter screen; format: cell-based, human; details: curve plateau at infinite concentration

Which results are given for `CC[C@H]1OC(=O)[C@H](C)[C@@H](O[C@H]2C[C@@](C)(OC)[C@@H](O)[C@H](C)O2)[C@H](C)[C@@H](O[C@@H]2O[C@H](C)C[C@H](N(C)C)[C@H]2O)[C@](C)(O)C[C@@H](C)CN(C)[C@H](C)[C@@H](O)[C@]1(C)O` [Azithromycin]?
Emax (SARS-CoV-2 [1]): 100%; EC50 (SARS-CoV-2 [1]): 0.65 µM; HeLa-ACE2 SI (SARS-CoV-2 [1]; selectivity index, uninfected HeLa-ACE2 CC50 / SARS-CoV-2 EC50): > 61.26; EC50 (Calu-3 cells [2]): > 9.85 µM; HepG2 72-hour cytotoxicity Sinf Average (HepG2 [3]): -100%; CC50 (in vitro [4]): > 39.8 µM; CC50 at 72 h [5]: > 39.8 µM; EC50 (HeLa-ACE2 cells [6]): > 9.59 µM; TOA:HeLa-ACE2 EC50 Ratio (SARS-CoV-2 [7]): 14.747; EC50 (SARS-CoV-2 [7]; Severe acute respiratory syndrome coronavirus 2, HeLa-ACE2, detail column): > 9.59 µM; EC50 (SARS-CoV-2 [8]; Severe acute respiratory syndrome coronavirus 2, Calu-3): > 9.85 µM; EC50 (HeLa-ACE2 cells [9]): > 9.59 µM; CC50 at 24 h [10]: > 39.8 µM

Which Emax (SARS-CoV-2 [1]; curve plateau at infinite concentration) does the source give for `COC(=O)C1=C(C)NC(C)=C(C(=O)OCCN2CCN(C(c3ccccc3)c3ccccc3)CC2)C1c1cccc([N+](=O)[O-])c1` (stereo not drawn) [Manidipine (Manyper)] here?
Its Emax is 100%.

What about the EC50 (SARS-CoV-2 [1]) of the same molecule?
Its EC50 is > 6.89 µM.

And the EC50 (Calu-3 cells [2])?
Its EC50 is > 9.98 µM.

What about the CC50 at 72 h (in vitro [4]) of the same molecule?
The CC50 at 72 h was 30.7 µM.

What about the Emax (SARS-CoV-2 [7]; Severe acute respiratory syndrome coronavirus 2, HeLa-ACE2, 10 h, curve plateau at infinite concentration, read-out: HeLa-ACE2 TOA CoV-2 Sinf Average) of the same molecule?
The Emax was 100%.

What about the EC50 (SARS-CoV-2 [7]; Severe acute respiratory syndrome coronavirus 2, HeLa-ACE2) of the same molecule?
Its EC50 is 7.72 µM.

And the “HepG2 72-hour cytotoxicity Sinf Average” value (HepG2 [11])?
Its value is -100%.

And the “HeLa-ACE2 synergy score with remdesivi [δ]” value (SARS-CoV-2 [12])?
Its value is -4.727.

And the Emax (SARS-CoV-2 [8]; Severe acute respiratory syndrome coronavirus 2, Calu-3, 48 h, curve plateau at infinite concentration, read-out: Calu-3 CoV-2 Sinf Average)?
Its Emax is 80%.

And the EC50 (SARS-CoV-2 [8]; Severe acute respiratory syndrome coronavirus 2, Calu-3, detail column)?
Its EC50 is > 5.48 µM.

What about the “HEK293T 72-hour cytotoxicty Sinf Average” value (HEK293T) of the same molecule?
The value was -100%.

And the EC50 (HeLa-ACE2 cells [13])?
The EC50 was > 9.61 µM.

And the CC50 at 72 h (in vitro [14])?
The CC50 at 72 h was 30.8 µM.

What about the “uninfected Calu-3 CC50” value (Calu-3 cells [15]) of the same molecule?
Its value is > 29.89 ×÷ 1.002 (n=5) μM.

What about the “Calu-3 uninfected cytotoxicity Sinf Average” value (Calu-3 cells [15]; human, 48 h) of the same molecule?
Its value is -100%.

What about the Emax (HeLa-ACE2 cells [9]; HeLa-ACE2, 24 h, read-out: HeLa-ACE2 cell count Sinf Average) of the same molecule?
The Emax was 100%.

And the EC50 (HeLa-ACE2 cells [9])?
Its EC50 is > 9.6 µM.

And the CC50 at 48 h (in vitro [16])?
Its CC50 at 48 h is > 29.9 µM.

And the CC50 at 24 h [10]?
Its CC50 at 24 h is > 17.1 µM.

What about the “HeLa-ACE2 uninfected cytotoxicity Sinf Average” value (HeLa-ACE2 cells [17]) of the same molecule?
The value was -96%.
